{"source": "patent US20070264229A1", "about": "“Peptides for Treatment of Autoimmune Disease” (priority 2004, published 2007)", "key": {"HLA-DR2 (DRA/DRB1*1501)": {"molecular_target": "T1, HLA-DR2 (DRA/DRB1*1501) (Homo sapiens, UniProt P01903+P01911)", "T1 construct": "isolate soluble HLA-DR2 molecules which had been expressed in Drosophila S2 cells; made in house; host or cells: Drosophila S2 cells", "experiment": "Competitive binding assay for HLA-DR2: inhibition of biotinylated MBP 85-99 binding", "protocol": "The reaction mixtures were transferred to plates coated with LB3.1 Ab specific to HLA DR2 molecules. Following addition of streptavidin-conjugated alkaline phosphatase, absorbance was measured at 450 nm by using a microtiter plate reader. Percent inhibition was calculated as described in the Materials and Methods. […] These studies were performed as described ([…]. et al. 2002. J Clin Invest 109:1635). […] Antigen presentation assay was performed as described previously [[…]. et al. 2001 Hum Immunol 62:753]."}, "[1]": {"system": "MBP85-99-specific transgenic (hVβ2+CD4+) and endogenous (hVβ2−CD4+) T cells", "experiment": "Cross-reactivity: proliferation of sorted transgenic and endogenous CD4+ T cells from humanized mice", "format": "cell-based, mouse", "conditions": "10 μg/ml MBP85-99 or 100 μg/ml peptide, FIG. 3A", "protocol": "To sort human TCR transgenic T cells specific to MBP 85-99, splenocytes from humanized mice were incubated with anti-CD4-APC (clone GK1.5, obtained from PharMingen, San Diego, Calif.) and anti-human Vβ2-PE (Immunotech, Marseille, France) at room temperature for 20 min. After washing twice, tg and endogenous or non-tg CD4 T cells (hVβ2^−CD4 cells) were sorted using a FACS Vantage SE apparatus (Becton Dickinson, San Diego, Calif.). The purity of fractionated hVβ2^+CD4^+ and hVβ2^−CD4^+ T cells was determined to be 98-99%.\nSJL/J mice were immunized with PLP 139-151 or with each of the peptides (100 μg per mouse) emulsified in complete Freund's adjuvant (CFA; Difco Laboratories, Detroit, Mich.). Ten days later, single cell suspensions were prepared from spleens and lymph nodes, and were stimulated and re-stimulated with corresponding peptides at a concentration of 10 μg/ml in the presence of APC. After two rounds of stimulation, viable lymphocytes were separated by Ficoll-Hypaque density gradient centrifugation and were tested for specificity at a dose range of 0 to 50 μg/ml. NASE 101-120 peptide, which also binds I-A^s was used as a negative control. Lymphocytes were cultured in 96-well plates at a density of 5×10^5 cells per ml for 48 hrs, and were pulsed with ^3[H]-thymidine, 1 μCi per well. After sixteen hours of culture, plates were harvested and a Wallac scintillation counter (model 1250) was used to analyze the proliferative response determined by amount of ^3[H]-thymidine incorporation CPM. To determine the proliferative response of each of tg T cells expressing HLA-DR2 and human MBP 85-99-specific TCR, and non-tg T cells, the cells fractionated by flow cytometry were seeded in complete medium at 4×10^5 cells/well in 96-well U-bottom microtiter plates. Irradiated splenocytes of humanized mice were used as APC.\nTherefore, MBP85-99-specific transgenic (hVβ2^+CD4^+) and endogenous (non-transgenic, hVβ2^−CD4^+) T cells were sorted by flow cytometry from spleen cells of humanized double transgenic mice."}, "[2]": {"system": "PLP139-151 specific cell line", "experiment": "Cross-reactivity with PLP139-151 specific cell line", "format": "cell-based, mouse", "conditions": "FIG. 3B", "protocol": "The proliferative responses were measured as CPM after pulsing with ^3[H] thymidine."}, "[3]": {"system": "EAE in HLA-DR2 and MBP85-99-specific TCR double tg mice", "conditions": "previous study, Illés 2004 PNAS 101:11749; cited from earlier work"}, "relapsing-remitting MS": {"system": "relapsing-remitting MS", "conditions": "relapsing-remitting forms of MS, cited from earlier work"}, "[4]": {"system": "spleen and lymph node cells of SJL/J mice", "conditions": "copolymer, Illés 2004 / Stern 2004 PNAS; cited from earlier work"}, "[5]": {"system": "spleen and lymph node cells of SJL/J mice", "experiment": "Cytokine measurement by ELISA in cultures from immunized SJL/J mice", "format": "cell-based, mouse", "conditions": "re-stimulated with cognate peptide 2 days, FIG. 4", "protocol": "After ten days, single cell suspensions derived from lymph nodes and spleens were re-stimulated with the corresponding peptides in the presence of antigen presenting cells for two days. Culture supernatants were analyzed for amount of secretion of IL-2, IL-4, IL-10 and IFN-γ by ELISA.\nCytokine mAb directed against each of IL-2, IL-4, IL-10, and IFN-γ was coated into wells of 96-well plates at a concentration of 1 μg/ml overnight. Plates were washed and were treated with blocking solution (Kierkegaard and Perry, Gaithersburg, Md.), followed by incubation of each of the cytokine standards and the culture supernatants overnight at 4° C. After washing, plates were incubated with corresponding biotinylated anti-cytokine-detecting mAb (1 μg/ml) for 2 hrs. Plates were developed by addition of avidin/peroxidase and its substrate. The mAb pairs used were from the following clones: IL-2: JES6-A112, and JES6-5H4; IL-4: 11B11 and BVD6-24G2; IL-10: JES5-16E3 and SXC-1; and IFN-γ: R4-6A2 and XMG 1.2 (PharMingen)."}, "[6]": {"system": "PLP139-151-specific CD4+ T cells", "experiment": "Detection of PLP 139-151-reactive CD4+ T cells with I-As/PLP 139-151 tetramers", "format": "in vivo, mouse", "conditions": "SJL mice immunized with PLP139-151 alone, cultured 4 days, FIG. 7A", "protocol": "After 10 days, lymphocytes were cultured with PLP 139-151. Four days later, after gating with anti-CD4, anti-CD25, and 7-amino-actinomycin D (7-AAD), live cells were incubated with I-A^s tetramers with PLP 139-151 (left) or with control peptide TMEV 70-86 (right) for 3 hrs. The I-A^s/tetramer-stained cells were determined in live CD4^+ T cell subset after eliminating dead cells (7-AAD positive).\nSJL/J mice in groups of 3 animals were immunized with CFA alone or with PLP 139-151, with or without each of the peptides (75 μg each/mouse) in CFA. On day 10, all mice were sacrificed, and single cell suspensions were prepared and cultured at a density of 5×10^6 cells per ml in DMEM medium containing 10% fetal calf serum (FCS), 2 mM L-glutamine, 10 mM HEPES, 2 mM mercaptoethanol, penicillin (1000 U/ml) and streptomycin (1 μg/ml) (Biowhittaker, Walkersville, Md.). The cultures from each of the above groups were re-stimulated with PLP 139-151 with or without peptides (25 μg per ml). The mice treated with CFA only were used as negative control to validate immunizations; the PLP 139-151-immunized mice were used as positive controls to which the effect of peptides on PLP 139-151-specific CD4^+ T cell responses was compared.\nAfter 4 days of culturing, cell suspensions were subjected to Ficoll-Hypaque density gradient centrifugation and were washed twice using PBS. […]"}}, "note": "Like-named read-outs stand apart in the source and are kept apart here.", "data": [{"substance": "poly[Y, E, A, K]n [Cop1]", "values": [{"measurement": "% inhibition", "setting": "HLA-DR2 (DRA/DRB1*1501); Binding of biotinylated MBP (0.5 μM) by peptide competitor (1 μM)", "value": 8, "unit": "%"}, {"measurement": "inhibition of binding of biotinylated MBP 85-99 to HLA-DR2 (in words)", "setting": "HLA-DR2 (DRA/DRB1*1501); recombinant HLA-DR2, FIG. 1A and Table 1", "value": "less efficiently than peptides J1, J2, J3 and J5"}, {"measurement": "proliferation of MBP85-99-specific transgenic or endogenous CD4+ cells", "setting": "[1]", "value": "did not cross-react"}, {"measurement": "response of PLP139-151 specific cell line (cross reactivity)", "setting": "[2]", "value": "did not cross-react"}, {"measurement": "mean maximal score", "setting": "[3]", "value": 3.5}, {"measurement": "reduction of relapse rate", "setting": "relapsing-remitting MS", "value": "about 30%"}, {"measurement": "reduction of relapse rate", "setting": "relapsing-remitting MS; listed as Copolymer 1", "value": 30, "unit": "%"}, {"measurement": "mean maximum score", "setting": "EAE in SJL/J mice; at around day 22, co-immunized with PLP139-151, FIG. 5B", "value": 2.5}, {"measurement": "severity of EAE (in words)", "setting": "EAE in SJL/J mice; co-immunized with PLP139-151, FIG. 5B", "value": "moderately suppressed"}]}, {"substance": "poly(F,Y,A,K)n [FYAK]", "values": [{"measurement": "induction of immunosuppressive cytokines IL-4 and IL-10", "setting": "[4]", "value": "most effective"}]}, {"substance": "PLP139-151: one of the most immunodominant and encephalitogenic epitopes of PLP in SJL/J mice (CHCLGKWLGHPDK; UniProt P60202 139-151, looked up, fragment)", "values": [{"measurement": "IFN-γ production", "setting": "[5]", "value": "produced in significant amounts"}, {"measurement": "IL-2 production", "setting": "[5]", "value": "produced in significant amounts"}, {"measurement": "Secretion of IL-4", "setting": "[5]", "value": "comparable in all of the cultures"}, {"measurement": "expansion of PLP tetramer reactive cells", "setting": "[6]", "value": 1.5, "unit": "%"}]}]}
